From patent US20080319000A1, “Use of 3,1IB-Cis-Dihydrotetrabenazine for the Treatment of Symptoms of Huntingtons Disease” (CAMBRIDGE LABORATORIES (IRELAND) LIMITED, priority 2005, published 2008)

Experiments:
Male Sprague-Dawley rats = assay: Spontaneous locomotor activity in rats (sedative properties); format: in vivo; settings: for Inactivity Duration / Large movements Duration / Large movements Occurrence: rats, 20 min period, mean ± SEM n=12
Experimental: A study was carried out in rats to determine whether the dihydrotetrabenazine isomers of the invention have sedative properties. […] Male Sprague-Dawley rats, (Charles River Laboratories, Saint-Germain/L'Arbresle, France), weighing 200-250 g at the beginning of the study, were used for the studies. […] The rats were allowed to acclimatize to their conditions for at least five days before commencement of the study. The rats received food ([…], France, ref. 811002) and water (tap water in water bottle) ad libitum. Solutions of each test compound in corn oil were freshly prepared on the day of the experiment. Haloperidol was prepared in hydroxyethylcellulose, 0.5% in deionized water. Either the vehicle or the test compounds were administered as a single dose (0.3, 1, 3 and 10 mg/kg, 2 mL/kg i.p.). The reference compound haloperidol (1 mg/kg) was administered i.p. […] The animals were placed in plexiglass cages under a video camera in a room with low light intensity (maximum 50 lux). At forty five minutes and 3 hours after administration, locomotor activity was determined during 20 minute periods using a video image analyzer (Videotrack, View Point, France). […] The number and duration of ambulatory movements and duration of inactivity was measured. At the end of the locomotor activity measurement (45 minutes and 3 hours), palpebral closure and arousal were be scored as follows in the plexiglass cage: […] Image tracking was performed using a video camera placed above the plexiglass cage, recording overall locomotor activity. […] The results were expressed as the means ±SEMs of the 12 individual values. Statistical analyses were carried out using ANOVA (one way) and Dunnett's t-test and with the non parametric test of Kruskal-Wallis followed by a Mann & Whitney U-test for the sedation cotation. A p value of p<0.05 was taken as indicating significance. Group size n=12 Group 1: Reference, haloperidol (1 mg/kg i.p.) Group 2: Vehicle control group (2 ml/kg i.p.) Group 3: tetrabenazine (0.3 mg/kg i.p) Group 4: tetrabenazine (1 mg/kg i.p) Group 5: tetrabenazine (3 mg/kg i.p) Group 6: tetrabenazine (10 mg/kg i.p) Group 7: […]

[1] = target: Dopamine Transporter (DAT) (Homo sapiens, UniProt Q01959); assay: Dopamine Transporter (DAT) binding
[2] = target: T1, monoamine oxidase isoform A (Homo sapiens, UniProt P21397); assay: Monoamine oxidase A inhibition; format: biochemical
T1 sequence (P21397 1-527): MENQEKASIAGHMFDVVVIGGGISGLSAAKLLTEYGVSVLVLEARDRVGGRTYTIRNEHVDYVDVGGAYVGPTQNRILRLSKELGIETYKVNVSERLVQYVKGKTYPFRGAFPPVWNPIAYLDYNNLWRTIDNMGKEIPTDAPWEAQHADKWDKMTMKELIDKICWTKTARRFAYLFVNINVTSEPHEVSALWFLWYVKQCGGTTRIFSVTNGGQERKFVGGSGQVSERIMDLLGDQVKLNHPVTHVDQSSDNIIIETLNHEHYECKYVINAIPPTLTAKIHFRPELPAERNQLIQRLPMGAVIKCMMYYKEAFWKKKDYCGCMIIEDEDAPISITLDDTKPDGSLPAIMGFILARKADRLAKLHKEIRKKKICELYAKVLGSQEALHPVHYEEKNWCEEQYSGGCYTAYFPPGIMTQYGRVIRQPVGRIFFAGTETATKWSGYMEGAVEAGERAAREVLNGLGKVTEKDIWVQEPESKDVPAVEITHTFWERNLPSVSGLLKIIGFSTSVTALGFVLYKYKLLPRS

[3] = system: B6CBA-Tg(HDexon1)62Gpb/1J transgenic (R6/2) mice; assay: Locomotor activity test in transgenic mice model of Huntington's disease; format: in vivo; settings: average recorded results, 5 mg/kg i.p.
Experimental: B6CBA-Tg(HDexon1)62Gpb/1J transgenic (R6/2) mice are transgenic for the 5-end of the human HD gene carrying (CAG) 115-(CAG) 150 repeat expansions. […] These symptoms appear between 6 and 8 weeks of age. […] The mice had access to commercial mouse chow (mouse/rate breeding, ref. 9341 Provimi Kliba, Switzerland) and tap water. […] The mice were placed in a transparent plastic box of floor dimensions 30×30 cm in a room with low light intensity (maximum 20 lux). Locomotor activity was determined during a 10 minute period using a video image analyzer (Videotrack, View Point, Lyon, France). The number, distance and average speed of ambulatory movements were measured. The mice were returned to their home cages after testing. Group 1: hemizygote Transgenic B6CBA-Tg(HDexon 1)62Gpb/1J mice treated with vehicle i.p. once a day for 4 days (from day 0 to day 3) Group 2: hemizygote Transgenic B6CBA-Tg(HDexon 1)62Gpb/1J mice treated with 5 mg/kg i.p. of test item once a day for 4 days (from day 0 to day 3) […] • Test item administration • Simplified Irwin test, 40 min after administration • Locomotor activity test, immediately after the simplified Irwin test Simplified Irwin scores were analysed using non-parametric Mann-Whitney's U test. Locomotor activity data were analysed using Dunnett's t-test. Rotarod scores were analysed using the non-parametric Mann-Whitney's U-test. Statistical analyses were performed using the software Statview SE^+graphics software, Brain Power.

[4] = 0.3 mg/kg i.p., 45 minutes after administration
[5] = 0.3 mg/kg i.p., 3 hours after administration
[6] = 1 mg/kg i.p., 45 minutes after administration
[7] = 1 mg/kg i.p., 3 hours after administration
[8] = 3 mg/kg i.p., 45 minutes after administration
[9] = 3 mg/kg i.p., 3 hours after administration
[10] = 10 mg/kg i.p., 45 minutes after administration
[11] = 10 mg/kg i.p., 3 hours after administration
[12] = DAY 0, 40 mn after administration
[13] = DAY 2, 40 mn after administration

Dopamine Transporter (DAT), sequence (Q01959 whole entry, species assumed, canonical isoform): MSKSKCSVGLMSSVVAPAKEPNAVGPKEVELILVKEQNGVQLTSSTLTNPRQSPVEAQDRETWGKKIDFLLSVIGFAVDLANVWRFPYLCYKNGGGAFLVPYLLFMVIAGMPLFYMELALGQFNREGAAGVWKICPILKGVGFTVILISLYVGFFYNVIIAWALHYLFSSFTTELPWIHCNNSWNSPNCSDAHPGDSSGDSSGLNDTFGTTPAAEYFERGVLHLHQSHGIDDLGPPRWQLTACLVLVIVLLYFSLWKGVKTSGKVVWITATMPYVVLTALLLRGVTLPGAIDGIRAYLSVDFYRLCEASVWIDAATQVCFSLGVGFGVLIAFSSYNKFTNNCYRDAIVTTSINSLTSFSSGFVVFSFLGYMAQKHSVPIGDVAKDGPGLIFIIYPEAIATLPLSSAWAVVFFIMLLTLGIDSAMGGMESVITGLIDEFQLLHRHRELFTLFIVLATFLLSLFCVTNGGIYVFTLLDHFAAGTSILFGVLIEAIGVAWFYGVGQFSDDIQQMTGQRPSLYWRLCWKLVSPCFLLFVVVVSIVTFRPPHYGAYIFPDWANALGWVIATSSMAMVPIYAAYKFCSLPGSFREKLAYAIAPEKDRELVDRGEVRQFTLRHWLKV

## COc1cc2c(cc1OC)[C@H]1C[C@H](O)[C@@H](CC(C)C)CN1CC2 (single isomer, unassigned) [Isomer B]
Male Sprague-Dawley rats; locomotor studies carried out on rats
  sedative effect: no sedative effects were observed
Male Sprague-Dawley rats; [4]
  Inactivity Duration: 346.1 ± 36.9 s
  Large movements Duration: 72.0 ± 9.6 s
  Large movements Occurrence: 268 ± 36
Male Sprague-Dawley rats; [5]
  Inactivity Duration: 566.4 ± 44.3 s
  Large movements Duration: 28.9 ± 9.2 s
  Large movements Occurrence: 101 ± 29
Male Sprague-Dawley rats; [6]
  Inactivity Duration: 334.0 ± 23.2 s
  Large movements Duration: 87.0 ± 7.6 s
  Large movements Occurrence: 297 ± 22
Male Sprague-Dawley rats; [7]
  Inactivity Duration: 525.8 ± 28.6 s
  Large movements Duration: 34.5 ± 6.2 s
  Large movements Occurrence: 125 ± 18
Male Sprague-Dawley rats; [8]
  Inactivity Duration: 342.2 ± 33.3 s
  Large movements Duration: 89.1 ± 12.4 s
  Large movements Occurrence: 313 ± 38
Male Sprague-Dawley rats; [9]
  Inactivity Duration: 530.5 ± 38.0 s
  Large movements Duration: 31.1 ± 6.5 s
  Large movements Occurrence: 113 ± 17
Male Sprague-Dawley rats; [10]
  Inactivity Duration: 333.1 ± 26.9 s
  Large movements Duration: 84.0 ± 11.2 s
  Large movements Occurrence: 298 ± 37
Male Sprague-Dawley rats; [11]
  Inactivity Duration: 515.0 ± 53.0 s
  Large movements Duration: 30.9 ± 6.4 s
  Large movements Occurrence: 120 ± 26
Male Sprague-Dawley rats; rats, 0.3, 1, 3 and 10 mg/kg i.p., 45 minutes and 3 hours after administration
  sedative effect: no sedative effects at any time
[1]
  Dopamine Transporter (DAT) binding activity: lack Dopamine Transporter (DAT) binding activity
[2]
  inhibitory activity against monoamine oxidase isoform A: no inhibitory activity
[3]; [12]
  Inactivity Duration: 184 ± 31 s
  Large movements Duration: 99 ± 13 s
  Large movements Occurence (number): 280 ± 41 number
  Large movements Speed: 13.0 ± 0.5 cm/s
[3]; DAY 0, before administration
  Inactivity Duration: 149 ± 27 s
  Large movements Duration: 128 ± 16 s
  Large movements Occurence (number): 309 ± 37 number
  Large movements Speed: 13.2 ± 0.5 cm/s
[3]; [13]
  Inactivity Duration: 134 ± 18 s
  Large movements Duration: 123 ± 14 s
  Large movements Occurence (number): 322 ± 40 number
  Large movements Speed: 13.9 ± 0.7 cm/s
[3]; DAY 24
  Inactivity Duration: 67 ± 42 s
  Large movements Duration: 148 ± 34 s
  Large movements Occurence (number): 818 ± 168 number
  Large movements Speed: 11.2 ± 0.9 cm/s
